Measured values from PMC2453235, “Identification and Rational Redesign of Peptide Ligands to CRIP1, A Novel Biomarker for Cancers” (PLoS Computational Biology, 2008).
Where a SMILES comes first, the peptide text is derived from it. Bridges are numbered along the chain shown (N, C = ends).

Key:
CRIP1 [1] = target: T1, CRIP1 (Homo sapiens, UniProt P50238); test: Saturation binding of FITC-labeled peptides; conditions: ΔΔG = RT ln K d,A1M − RT ln K d,A1, from apparent dissociation constants
T1 construct: enterokinase cleavage site and vector linker residues (N); made in house; host or cells: E. coli (pHAT10-CRIP1, IPTG induction)
T1 sequence (P50238 1-77): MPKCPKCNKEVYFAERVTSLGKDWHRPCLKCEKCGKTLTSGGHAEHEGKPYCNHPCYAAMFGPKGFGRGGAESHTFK
Text: We computationally redesigned A1 resulting in a peptide with a new sequence (denoted as A1M) predicted to bind to CRIP1 with higher affinity. To test this prediction, A1, B5 and A1M peptides were all synthesized and labeled with FITC for binding studies. Since the peptides encoded by the C7C phage library are at the N-terminus of the minor phage coat protein pIII followed by a short phage encoded spacer Gly-Gly-Gly-Ser, we included this 4-mer in the synthesized peptide. An additional C-terminal Lys was also included in order to enable fluorescent labeling of the peptide. […] We synthesized the cyclic form of the peptides, A1, B5 and A1M and determined their ability to bind CRIP1 using saturation binding experiments. […] To directly compare the affinity of the A1 and A1M peptides for CRIP1 protein, we performed a competitive binding assay and determined the IC50 for each of the peptides using FITC-A1M as the ligand. […]
The binding affinity of the peptides for CRIP1 protein was determined by saturation binding experiments,[55]. […] The fluorescence intensity in each well was determined on Infinite M200 Tecan Instrument (Tecan, NC) (Excitation wavelength: 494 nm, Emission wavelength: 530 nm). The apparent equilibrium dissociation constant, K d,apparent, was calculated by non-linear regression using GraphPad Prism (GraphPad Prism 4.0 Software, San Diego, CA). […]

CRIP1 [2] = target: T1, CRIP1; test: Competitive binding assay against FITC-A1M; conditions: A1M vs A1, competing for FITC-A1M binding, from IC50
Experimental: The binding affinity of the A1 and A1M peptides for CRIP1 protein was directly compared by a competitive binding experiment,[56]. Labeled A1M peptide (FITC-A1M) was competed with increasing concentrations of either unlabeled A1M peptides or A1 peptide and the IC50 for each peptide calculated.
Ninety-six well plates were coated with 150 µl of PBS buffer containing 100 µg/ml of CRIP1 and incubated overnight at 4°C. The wells were then washed 3 times with 50 mM Tris, 150 mM NaCl, pH 7.5 (TBS) containing 0.1% Tween-20 (TBST), and then each well filled completely with blocking buffer (TBS containing 0.5% BSA), incubated at least 1 hour at 4°C, and then rapidly washed 3 times with TBST. Following washing 150 µl of binding buffer containing FITC-A1M peptides of 10 µM and appropriate dilutions of unlabeled A1 and A1M peptides (ranging from 0 to 300 µM) were added to the CRIP1 containing wells and incubated for 1 hour at 37°C with rocking. After incubation, the plates were washed three times with binding buffer. The fluorescence intensity in each well was determined on Infinite M200 Tecan Instrument (Tecan, NC) (Excitation wavelength: 494 nm, Emission wavelength: 530 nm). Ki was calculated by non-linear regression with one binding site using GraphPad Prism (GraphPad Prism 4.0 Software, San Diego, CA). […]

experimental free energy change ΔΔG (CRIP1 [1]): -1.6 kcal/mol | binding affinity relative to A1 (fold better) (CRIP1 [2]): approximately 27.5 times
SMILES: CC(C)C[C@@H]1NC(=O)[C@@H](N)CSSC[C@@H](C(=O)NCC(=O)NCC(=O)NCC(=O)N[C@@H](CO)C(=O)N[C@@H](CCCCN)C(N)=O)NC(=O)CNC(=O)[C@H](CCCCN)NC(=O)CNC(=O)CNC(=O)CNC(=O)[C@H](CC(=O)O)NC1=O [A1M] (H-CLDGGGKGCGGGSK-NH2; disulfide 1-9; N-terminus assumed)
